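Where inhibition never reached the appropriate level, the endpoint shown equals the highest concentration tested. Otherwise, values were interpolated linearly from a five-concentration, 48-hour dose response in 96-well plates. At the GI50, growth is halved.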 Calls of active or inactive are those of the source. Rule as the data show it: active = GI50 up to about 1.1 µM and inactive = higher.
Columns and labels:
Experiment in all cases: NCI anticancer screen, dose series, 48 h
[1] = system: MDA-MB-231
[2] = system: OVCAR-3
[3] = system: Malme-3M
[4] = system: RXF 393
[5] = system: SK-MEL-28
[6] = system: MOLT-4
[7] = system: BT-549
[8] = system: HL-60
[9] = system: NCI-H226
[10] = system: U-251
[11] = system: 786-0
[12] = system: MDA-MB-435
[13] = system: SK-OV-3
[14] = system: UACC-257
[15] = system: SF-268
[16] = system: COLO 205
[17] = system: UO-31
[18] = system: MCF7
[19] = system: SK-MEL-2
[20] = system: ACHN

Measured: GI50

NC(=O)N/N=C\c1ccccc1OCc1cccc(COc2ccccc2/C=N\NC(N)=O)n1
inactive: [1] 14.6 µM | [2] > 100 µM | [3] 72.9 µM | [4] 12.9 µM | [5] > 100 µM | [6] > 100 µM | [7] 26.9 µM | [8] > 100 µM | [9] 73.6 µM | [10] 5.56 µM | [11] 20.5 µM | [12] > 100 µM | [13] 19 µM | [14] > 100 µM | [15] 21 µM | [16] > 100 µM | [17] 29.9 µM | [18] > 100 µM | [19] 28.8 µM | [20] 26.2 µM

O=C(CCSC1=NCCCN1)c1ccc(F)cc1
inactive: [1] 21.5 µM | [2] 22.9 µM | [3] 7.26 µM | [4] 17.2 µM | [5] 18.7 µM | [6] 2.62 µM | [7] 18.2 µM | [8] 10.7 µM | [9] 17.4 µM | [10] 17.5 µM | [11] 4.02 µM | [12] 18.5 µM | [13] 21.3 µM | [14] 18.8 µM | [15] 22.9 µM | [16] 5.98 µM | [17] 5.83 µM | [18] 4.41 µM | [19] 18.2 µM | [20] 15.5 µM

COC(=O)C(CCCCN)NC(=O)C(CCCCN)NC(C)=O.Cc1ccc(C(=O)Nc2ccc(S(=O)(=O)O)c3cc(S(=O)(=O)O)cc(S(=O)(=O)O)c23)cc1NC(=O)c1cccc(NC(=O)Nc2cccc(C(=O)Nc3cc(C(=O)Nc4ccc(S(=O)(=O)O)c5cc(S(=O)(=O)O)cc(S(=O)(=O)O)c45)ccc3C)c2)c1
inactive: [1] 16.2 µM | [2] > 50 µM | [3] > 50 µM | [4] > 50 µM | [5] > 50 µM | [6] > 50 µM | [7] > 50 µM | [8] > 50 µM | [9] > 50 µM | [10] > 50 µM | [11] > 50 µM | [12] > 50 µM | [13] > 50 µM | [14] > 50 µM | [15] > 50 µM | [16] > 50 µM | [17] > 50 µM | [18] > 50 µM | [19] > 50 µM | [20] > 50 µM

COc1cc(-c2cc(=O)c3cc4c(=O)cc(-c5cc(OC)c(OC)c(OC)c5)oc4cc3o2)cc(OC)c1OC
inactive: [1] > 39 µM | [2] > 87.1 µM | [3] 43.2 µM | [4] 7.98 µM | [5] > 100 µM | [6] > 88.7 µM | [7] 17.5 µM | [8] > 100 µM | [9] 12.9 µM | [10] 8.59 µM | [11] 14.3 µM | [12] > 100 µM | [13] 18.8 µM | [14] > 83.6 µM | [15] 23.5 µM | [16] > 100 µM | [17] > 100 µM | [18] > 100 µM | [19] 16.7 µM | [20] 25.1 µM

O=C(O)CC(Nc1ccccc1)C(=O)O (stereo not given)
inactive: [1] > 100 µM | [2] > 100 µM | [3] > 100 µM | [4] > 100 µM | [5] > 100 µM | [6] > 100 µM | [7] > 100 µM | [8] > 100 µM | [9] > 100 µM | [10] > 100 µM | [11] > 100 µM | [12] > 100 µM | [13] > 100 µM | [14] > 100 µM | [15] > 100 µM | [16] > 100 µM | [17] > 100 µM | [18] > 100 µM | [19] > 100 µM | [20] > 100 µM
